Experimental data from patent publication US8383652B2, “Biaromatic compounds that modulate PPAR-receptors” (Galderma Research & Development, priority 2005, dated 2013).
Where a name gives a salt, the structure may show the parent alone.

Key:
[1] = molecular target: T1, PPARα (Homo sapiens, UniProt Q07869); assay: Cross-curve PPAR transactivation test, PPARα; type: cell-based; settings: HeLN cells stably transfected with Gal-hPPAR and luciferase reporter; cross curves against reference agonist, Schild regression; n.a means not active; read-out: PPAR alpha Kd app
T1 construct: The reporter is ERE-βGlob-Luc-SV-Neo
T1 sequence (Q07869 200-468 limits assumed): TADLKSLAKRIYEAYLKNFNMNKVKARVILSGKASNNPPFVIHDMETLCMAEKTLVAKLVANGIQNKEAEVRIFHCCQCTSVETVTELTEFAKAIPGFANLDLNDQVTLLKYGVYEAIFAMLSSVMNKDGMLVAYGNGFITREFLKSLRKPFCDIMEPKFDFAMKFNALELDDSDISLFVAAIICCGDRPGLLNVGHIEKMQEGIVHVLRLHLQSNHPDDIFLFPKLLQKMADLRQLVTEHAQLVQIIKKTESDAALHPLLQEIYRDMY
Procedure: (§1) The activation of the receptors with an agonist (activator) in HeLN cells leads to the expression of a reporter gene, luciferase, which, in the presence of a substrate, generates light. The modulation of the receptors is measured by quantifying the luminescence produced after incubating the cells in the presence of a reference agonist. The ligands displace the agonist from its site. The measurement of the activity is performed by quantifying the light produced. This measurement makes it possible to determine the modulatory activity of the compounds according to the invention by determining the constant that is the affinity of the molecule for the receptor. Since this value can fluctuate depending on the basal activity and the expression of the receptor, it is referred to as Kd apparent (KdApp in nM).
(§2) To determine this constant, “cross curves” of the test product against a reference agonist are produced in a 96-well plate: 10 concentrations of the test product plus a concentration 0 are arranged in a line, and 7 concentrations of the agonist plus a concentration 0 are arranged in a column. This is 88 measurement points for 1 product and 1 receptor. The remaining 8 wells are used for repeatability controls.
(§3) Measurements are also taken for total agonist controls with the same products.
(§4) The HeLN cell lines used are stable transfectants containing the plasmids ERE-βGlob-Luc-SV-Neo (reporter gene) and PPAR (α, δ, γ) Gal-hPPAR. These cells are inoculated into 96-well plates at a rate of 10-000 cells per well in 100 μL of DMEM medium without phenol red and supplemented with 10% of defatted calf serum. The plates are then incubated at 37° C. and 7% CO2 for 16 hours. The various dilutions of the test products and of the reference ligand are added at a rate of 5 μL per well. The plates are then incubated for 18 hours at 37° C. and 7% CO2.
(§5) The culture medium is removed by turning over and 100 μL of a 1:1 PBS/luciferin mixture are added to each well. After 5 minutes, the plates are read by the luminescence detector.

[2] = molecular target: T2, PPARγ (Homo sapiens, UniProt P37231); assay: Cross-curve PPAR transactivation test, PPARγ; type: cell-based; settings: HeLN cells stably transfected with Gal-hPPAR and luciferase reporter; cross curves against reference agonist, Schild regression; n.a means not active; read-out: PPAR gamma Kd app
T2 construct: The reporter is ERE-βGlob-Luc-SV-Neo
T2 sequence (P37231 238-505 limits assumed): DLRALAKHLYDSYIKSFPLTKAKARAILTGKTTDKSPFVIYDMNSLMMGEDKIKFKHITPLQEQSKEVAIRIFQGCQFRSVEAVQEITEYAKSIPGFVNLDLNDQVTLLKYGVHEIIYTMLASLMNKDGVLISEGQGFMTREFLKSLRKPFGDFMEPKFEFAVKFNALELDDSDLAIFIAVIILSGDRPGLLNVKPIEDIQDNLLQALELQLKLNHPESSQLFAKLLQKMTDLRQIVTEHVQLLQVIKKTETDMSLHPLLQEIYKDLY
Procedure: as §1, §2, §3, §4, §5

[3] = molecular target: T3, PPARδ (Homo sapiens, UniProt Q03181); assay: Cross-curve PPAR transactivation test, PPARδ; type: cell-based; settings: HeLN cells stably transfected with Gal-hPPAR and luciferase reporter; cross curves against reference agonist, Schild regression; n.a means not active; read-out: PPARs delta Kd app
T3 construct: The reporter is ERE-βGlob-Luc-SV-Neo
T3 sequence (Q03181 211-441 limits assumed): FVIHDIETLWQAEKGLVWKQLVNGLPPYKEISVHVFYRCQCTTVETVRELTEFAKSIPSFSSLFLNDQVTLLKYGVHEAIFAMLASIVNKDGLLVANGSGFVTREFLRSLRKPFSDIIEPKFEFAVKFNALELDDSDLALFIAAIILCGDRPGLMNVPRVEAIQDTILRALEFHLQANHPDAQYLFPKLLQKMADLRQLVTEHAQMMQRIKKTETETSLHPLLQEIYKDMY
Procedure: as §1, §2, §3, §4, §5

Row | SMILES | Kd [1] [nM] | Kd [2] [nM] | melting point [°C] | Kd [3] [nM]
1 | CCCCCCCC(=O)N(C)Cc1cccc(-c2ccc(/C=C(\OCC)C(=O)O)cc2)c1 [Compound 1, (Z)-2-ethoxy-3-{3′-[(methyloctanoylamino)methyl]biphenyl-4-yl}acrylic acid] | 2000 | 30 | – | –
2 | CCCCCCCNC(=O)N(C)c1cccc(-c2ccc(/C=C(\OCC)C(=O)O)cc2)n1 [Compound 2, (Z)-2-ethoxy-3-{4-[6-(3-heptyl-1-methylureido)pyrid-2-yl]phenyl}acrylic acid] | 1000 | 30 | – | –
3 | CCCCCNC(=O)N(C)c1cccc(-c2ccc(/C=C(\OCC)C(=O)O)cc2)n1 [Compound 3, (Z)-2-ethoxy-3-{4-[6-(1-methyl-3-pentylureido)pyrid-2-yl]phenyl}acrylic acid] | – | 30 | 162 | –
4 | CCCCCCCNC(=O)N(C)c1cccc(-c2ccc(/C=C(\OCC)C(=O)O)cn2)c1 [Compound 4, (Z)-2-ethoxy-3-{6-[3-(3-heptyl-1-methylureido)phenyl]pyrid-3-yl}acrylic acid hydrochloride] | – | 4 | – | –
5 | CCCCCCCNC(=O)N(C)c1cccc(-c2ccc(/C=C(\C)C(=O)O)cc2)c1 [Compound 5, (E)-3-[3′-(3-heptyl-1-methylureido)biphenyl-4-yl]-2-methylacrylic acid] | – | 2 | – | –
6 | CCCCCCCNC(=O)N(C)c1cccc(-c2ccc(/C=C(\F)C(=O)O)cc2)c1 [Compound 6, (Z)-2-fluoro-3-[3′-(3-heptyl-1-methylureido)biphenyl-4-yl]acrylic acid] | – | 60 | – | –
7 | CCCCCCCNC(=O)N(C)c1cccc(-c2ccc(/C=C(\CC)C(=O)O)cc2)c1 [Compound 7, 2-[1-[3′-(3-heptyl-1-methylureido)biphenyl-4-yl]meth-(E)-ylidene]butyric acid] | – | 4 | – | –
8 | CCCCCNC(=O)N(C)c1cccc(-c2ccc(/C=C(\CCC)C(=O)O)cc2)c1 [Compound 8, 2-[1-[3′-(1-methyl-3-pentylureido)biphenyl-4-yl]meth-(E)-ylidene]pentanoic acid] | 500 | 4 | – | 2000
9 | CCCCCNC(=O)N(C)c1cccc(-c2ccc(/C=C(\CC)C(=O)O)cc2)c1 [Compound 9, 2-[1-[3′-(1-methyl-3-pentylureido)biphenyl-4-yl]meth-(E)-ylidene]butyric acid] | 2000 | 4 | – | 2000
10 | CCO/C(=C\c1ccc(-c2cccc(N(C)C(=O)NCCc3ccccc3)c2)cc1)C(=O)O [Compound 10, (Z)-2-ethoxy-3-[3′-(1-methyl-3-phenethylureido)biphenyl-4-yl]acrylic acid] | – | 4 | – | –
11 | CCCCNC(=O)N(C)c1cccc(-c2ccc(/C=C(\OC)C(=O)O)cc2)c1 [Compound 11, (Z)-3-[3′-(3-butyl-1-methylureido)biphenyl-4-yl]-2-methoxyacrylic acid] | – | 4 | – | –
12 | CCCCCNC(=O)N(C)c1cccc(-c2ccc(/C=C(\OC)C(=O)O)cc2)c1 [Compound 13, (Z)-2-Methoxy-3-[3′-(1-methyl-3-pentylureido)biphenyl-4-yl]acrylic acid] | – | 8 | – | 4000
13 | COC(=O)/C(=C/c1ccc(-c2cccc(N(C)C(=O)NC3CCCCC3)c2)cc1)OC [Compound 14, Methyl (Z)-3-[3′-(3-cyclohexyl-1-methylureido)biphenyl-4-yl]-2-methoxyacrylate] | – | 60 | – | 4000
14 | CO/C(=C\c1ccc(-c2cccc(N(C)C(=O)NC3CCCCC3)c2)cc1)C(=O)O [Compound 15, (Z)-3-[3′-(3-cyclohexyl-1-methylureido)biphenyl-4-yl]-2-methoxyacrylic acid] | – | 8 | – | –
15 | CO/C(=C\c1ccc(-c2cccc(N(C)C(=O)NCCc3ccccc3)c2)cc1)C(=O)O [Compound 16, (Z)-2-methoxy-3-[3′-(1-methyl-3-phenethylureido)biphenyl-4-yl]acrylic acid] | – | 8 | – | –
16 | CCCCOc1cc(/C=C(\C)C(=O)O)ccc1-c1cccc(CN(C)C(=O)c2cccc(OC)c2)c1 [Compound 21, (E)-3-(2-butoxy-3′-{[(3-methoxybenzoyl)methylamino]methyl}biphenyl-4-yl)-2-methylacrylic acid] | – | 30 | – | –
17 | CCCCOc1cc(/C=C(\CC)C(=O)O)ccc1-c1cccc(CN(C)C(=O)c2ccccc2)c1 [Compound 22, 2-[1-{3′-[(benzoylmethylamino)methyl]-2-butoxybiphenyl-4-yl}meth-(E)-ylidene]butyric acid] | – | 120 | – | –
18 | CCCCCNC(=O)N(C)c1cccc(-c2ccc(/C=C(\OC)C(=O)O)cc2OCCCC)c1 [Compound 24, (Z)-3-[2-butoxy-3′-(1-methyl-3-pentylureido)biphenyl-4-yl]-2-methoxyacrylic acid] | – | – | 61 | –
19 | CCCCCCCNC(=O)N(C)c1cccc(-c2ccc(/C=C(\C)C(=O)O)cc2OCCC)c1 [Compound 31, (E)-3-[3′-(3-heptyl-1-methylureido)-2-propoxybiphenyl-4-yl]-2-methylacrylic acid] | – | 2 | – | –
20 | CCCCCCCNC(=O)N(C)c1cccc(-c2ccc(/C=C(\C)C(=O)O)cc2OCC)c1 [Compound 32, (E)-3-[2-ethoxy-3′-(3-heptyl-1-methylureido)biphenyl-4-yl]-2-methylacrylic acid] | 4000 | 1 | – | –
